Positions count from the first letter of the chain named.
How the values were obtained:
Experiment in all cases: E. coli hemG growth inhibition by herbicide, AtPPO1 variant
Type in all cases: cell-based
Details in all cases: read-out: percentage growth inhibition
AtPPO1 K173H = target: T1, AtPPO1 K173H (Arabidopsis thaliana, UniProt P55826, K173H)
T1 construct: expressed in transfected cells; host or cells: E. coli BL21(DE3) hemG (hemG replaced by CmR), pET24a plasmid
T1 sequence (P55826 35-537 K173H): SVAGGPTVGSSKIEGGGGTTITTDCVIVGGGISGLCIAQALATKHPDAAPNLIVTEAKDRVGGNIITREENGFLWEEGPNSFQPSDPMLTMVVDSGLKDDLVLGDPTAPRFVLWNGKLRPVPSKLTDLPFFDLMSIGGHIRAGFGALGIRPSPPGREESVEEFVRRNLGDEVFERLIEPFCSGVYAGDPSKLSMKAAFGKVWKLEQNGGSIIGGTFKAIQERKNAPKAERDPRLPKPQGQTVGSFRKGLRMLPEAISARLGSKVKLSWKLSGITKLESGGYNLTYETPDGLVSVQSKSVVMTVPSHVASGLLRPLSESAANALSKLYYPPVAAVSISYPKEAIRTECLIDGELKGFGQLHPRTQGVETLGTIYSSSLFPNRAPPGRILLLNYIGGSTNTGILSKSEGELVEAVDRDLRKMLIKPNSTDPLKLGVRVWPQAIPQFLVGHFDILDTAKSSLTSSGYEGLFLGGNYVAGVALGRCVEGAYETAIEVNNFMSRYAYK
Procedure, shortened: (§1)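 AtPPO1 variants from a site-saturation library, codon-optimised and T7-driven in pET24a, were expressed in E. coli BL21(DE3) lacking hemG (hemG replaced by CmR). Growth in Terrific broth with 0.1 mM IPTG plus 6.25 ppm herbicide 0 or E, 0.78 ppm herbicide B, or DMSO was read as OD600 after 24 h at 37° C; inhibition was calculated against the DMSO culture.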

AtPPO1 Q272I = target: T2, AtPPO1 Q272I (Arabidopsis thaliana, UniProt P55826, Q272I)
T2 construct: expressed in transfected cells; host or cells: E. coli BL21(DE3) hemG (hemG replaced by CmR), pET24a plasmid
T2 sequence (P55826 35-537 Q272I): T1 sequence (P55826 35-537 K173H) with H139K, Q238I
Procedure, shortened: as §1

AtPPO1 R449K = target: T3, AtPPO1 R449K (Arabidopsis thaliana, UniProt P55826, R449K)
T3 construct: expressed in transfected cells; host or cells: E. coli BL21(DE3) hemG, pET24a plasmid
T3 sequence (P55826 35-537 R449K): T1 sequence (P55826 35-537 K173H) with H139K, R415K
Procedure, shortened: as §1

AtPPO1 Y361F = target: T4, AtPPO1 Y361F (Arabidopsis thaliana, UniProt P55826, Y361F)
T4 construct: expressed in transfected cells; host or cells: E. coli BL21(DE3) hemG (pET24a, T7 promoter)
T4 sequence (P55826 35-537 Y361F): T1 sequence (P55826 35-537 K173H) with H139K, Y327F
Procedure, shortened: as §1

Row | Compound | inhibition at 6.25 ppm (AtPPO1 K173H) | inhibition at 6.25 ppm (AtPPO1 Q272I) | inhibition at 6.25 ppm (AtPPO1 R449K) | inhibition at 6.25 ppm (AtPPO1 Y361F) | inhibition at 0.78 ppm (AtPPO1 K173H) | inhibition at 0.78 ppm (AtPPO1 Q272I) | inhibition at 0.78 ppm (AtPPO1 R449K) | inhibition at 0.78 ppm (AtPPO1 Y361F)
1 | CCOC(=O)[C@]1(C)CC(c2cc(-n3c(=O)n(C)c(=S)n(C)c3=O)c(F)cc2Cl)=NO1 [Herbicide D, ethyl (5S)-3-[2-chloro-5-(3,5-dimethyl-2,6-dioxo-4-thioxo-1,3,5-triazinan-1-yl)-4-fluoro-phenyl]-5-methyl-4H-isoxazole-5-carboxylate] | 34% | 29% | 37% | 37% |  |  |  | 
2 | C#CCN1C(=O)C(F)(F)Oc2cc(F)c(-n3c(=O)n(C)c(=S)n(C)c3=O)cc21 [Herbicide B, trifludimoxazin] |  |  |  |  | 29% | 24% | 35% | 31%
3 | CC(C)N(C)S(=O)(=O)NC(=O)c1cc(-n2c(=O)cc(C(F)(F)F)n(C)c2=O)c(F)cc1Cl [Herbicide E, saflufenacil] | 55% | 63% | 68% | 50% |  |  |  | 
